Reference: paper PMC5161622 (ACS synthetic biology, 2016)
Entries after “also recorded” stand apart in the source; their conditions may differ.

Key:
β-gly W33G_V37A = β-gly W33G_V37A (Saccharolobus solfataricus, UniProt P22498, V37A/W33G); assay: β-glycosidase enzyme assay, rescue of β-gly W33G_V37A; format: biochemical, Sulfolobus solfataricus
β-gly W33G [1] = biological target: T1, β-gly W33G (Saccharolobus solfataricus, UniProt P22498, W33G); assay: β-glycosidase enzyme assay, rescue of β-gly W33G by effector ligands; format: biochemical, Sulfolobus solfataricus; conditions: for rescue of enzyme activity (in words) / enhancement of initial velocity relative to apo enzyme: 2 mM effector; for rescue of enzyme activity (in words) / agonist class / concentration dependence of initial velocity / effector dissociation constant KD (in words) / linkage term W (in words): 750 μM FDGal; for agonist class: concentration dependence; for concentration dependence of initial velocity / effector dissociation constant KD (in words) / linkage term W (in words): up to 5 mM effector; for effector dissociation constant KD (in words) / linkage term W (in words): fit of concentration dependence
β-gly W33G [2] = biological target: T1, β-gly W33G; assay: 19F NMR competition assay with 6-fluoroindole reporter, β-gly W33G; format: binding, Sulfolobus solfataricus; conditions: 2 mM 6-fluoroindole, 500 μM protein; for displacement of 6-fluoroindole reporter (19F peak sharpening): 5 mM competitor
β-gly W33A = β-gly W33A (Saccharolobus solfataricus, UniProt P22498, W33A); assay: β-glycosidase enzyme assay, rescue of β-gly W33A; format: biochemical, Sulfolobus solfataricus; conditions: 750 μM FDGal
β-gly W33G [3] = biological target: T1, β-gly W33G; conditions: 10 mM indole, cited from earlier work
WT β-gly = biological target: T2, WT β-gly (Saccharolobus solfataricus, UniProt P22498); assay: 19F NMR reporter binding, wild type β-gly; design: species or system Sulfolobus solfataricus; conditions: 2 mM 6-fluoroindole, 500 μM WT protein
T2 sequence (P22498 1-489): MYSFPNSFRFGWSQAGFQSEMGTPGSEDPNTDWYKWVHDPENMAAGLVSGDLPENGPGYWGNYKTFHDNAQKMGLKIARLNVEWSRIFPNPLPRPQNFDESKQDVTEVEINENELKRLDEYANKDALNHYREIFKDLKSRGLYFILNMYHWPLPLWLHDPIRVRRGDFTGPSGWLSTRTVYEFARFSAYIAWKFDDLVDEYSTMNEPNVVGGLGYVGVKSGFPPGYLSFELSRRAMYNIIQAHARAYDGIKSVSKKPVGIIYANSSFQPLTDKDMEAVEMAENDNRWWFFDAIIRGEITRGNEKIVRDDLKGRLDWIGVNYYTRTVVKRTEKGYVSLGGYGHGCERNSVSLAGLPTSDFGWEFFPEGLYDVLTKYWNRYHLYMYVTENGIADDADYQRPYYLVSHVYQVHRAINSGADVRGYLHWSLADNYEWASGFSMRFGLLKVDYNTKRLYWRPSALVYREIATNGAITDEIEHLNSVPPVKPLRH

[4] = fit of concentration dependence

T1 sequence (P22498 whole entry W33G): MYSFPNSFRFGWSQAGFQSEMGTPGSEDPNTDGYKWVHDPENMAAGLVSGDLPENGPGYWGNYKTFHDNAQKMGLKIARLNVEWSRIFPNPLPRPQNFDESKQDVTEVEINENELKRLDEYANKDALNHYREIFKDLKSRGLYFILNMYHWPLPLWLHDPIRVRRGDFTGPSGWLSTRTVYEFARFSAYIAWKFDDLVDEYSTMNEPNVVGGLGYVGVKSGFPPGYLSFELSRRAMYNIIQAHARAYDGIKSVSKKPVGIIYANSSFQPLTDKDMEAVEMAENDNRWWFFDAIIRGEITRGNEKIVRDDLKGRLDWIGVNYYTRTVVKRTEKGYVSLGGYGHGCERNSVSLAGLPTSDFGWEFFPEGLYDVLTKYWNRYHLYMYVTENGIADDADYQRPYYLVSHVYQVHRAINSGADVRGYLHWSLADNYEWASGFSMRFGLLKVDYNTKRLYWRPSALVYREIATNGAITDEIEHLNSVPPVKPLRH
Sequence of β-gly W33A (P22498 whole entry W33A): as the sequence (P22498 whole entry W33G) above, with G33A counted along it
Sequence of β-gly W33G_V37A (P22498 whole entry W33G/V37A): as the sequence (P22498 whole entry W33G) above, with V37A counted along it

| SMILES | rescue of enzyme activity (in words) (β-gly W33G [1]) | displacement of 6-fluoroindole reporter (19F peak sharpening) (β-gly W33G [2]) | linkage term W (in words) (β-gly W33A; [4]) | agonist class (β-gly W33G [1]) | concentration dependence of initial velocity (β-gly W33G [1]) | linkage term W (in words) (β-gly W33G [1]) | other results |
| --- | --- | --- | --- | --- | --- | --- | --- |
| Cc1ccc2[nH]ccc2c1 [5-methylindole] |  |  |  |  |  |  | rescue of enzyme activity (in words) (β-gly W33G_V37A; 2 mM effector, 750 μM FDGal): superior over indole; ligand efficiency (binding free energy per non-hydrogen atom) (β-gly W33G_V37A; 5-methylindole / β-gly W33G_V37A switch): −0.43 kcal/mol·atom; binding affinity KD (in words) (β-gly W33G_V37A; fit of concentration dependence, 750 μM FDGal): almost an order of magnitude tighter than that of indole |
| Cc1cc2ccccc2[nH]1 [2-methylindole] | no increase in activity over the apo enzyme | very little, if any, peak sharpening; also recorded: does not bind to this site |  |  |  |  |  |
| Cc1c[nH]c2ccccc12 [3-methylindole] | most rescue; also recorded: the next best rescuing compound | analogous peak sharpening | lower for W33A than for W33G | partial agonists | dose-dependent increases in the initial velocity | worse than for indole | rescue of enzyme activity (in words) (β-gly W33A): rescued activity better than indole; enhancement of initial velocity relative to apo enzyme (β-gly W33G [1]; FDGlc substrate 250 μM, indole versus 3-methylindole): difference in rescue between these substrates is greatly reduced; effector dissociation constant KD (in words) (β-gly W33G [1]): slightly better than for indole; also recorded: superior KD |
| Fc1ccc2[nH]ccc2c1 [5-fluoroindole] |  |  |  |  | enhanced β-glycosidase activity at each of the concentrations we tested | W favors indole | effector dissociation constant KD (in words) (β-gly W33G [1]): KD favors 5-fluoroindole |
| CNc1ccccc1 [N-methylaniline] | intermediate rescue | analogous peak sharpening | highest value of W | partial agonists | dose-dependent increases in the initial velocity | superior W value | rescue of enzyme activity (in words) (β-gly W33A): better than either indole or 3-methylindole; binding affinity KD (in words) (β-gly W33A; [4]): poor binding affinity |
| c1ccc2[nH]ccc2c1 [indole] | about twice the activity of 5-methylindole | signal sharpens | lower for W33A than for W33G | full agonist | dose-dependent increases in the initial velocity | highest linkage term (W) | enhancement of initial velocity relative to apo enzyme (β-gly W33G [1]; FDGal substrate 250 μM): better rescue with 2 mM indole than with 2 mM 3-methylindole; ligand efficiency (binding free energy per non-hydrogen atom) (β-gly W33G [1]; binding to β-gly W33G): −0.31 kcal/mol·atom; restoration of kcat/Km relative to wild type (β-gly W33G [3]; W33G alone 730-fold decrease): completely restored; restoration of wild type activity (β-gly W33G [3]): fully restored wild type activity |
| Fc1ccc2cc[nH]c2c1 [6-fluoroindole] | very similar level as indole itself |  |  |  |  |  | 19F signal of reporter upon addition of protein (WT β-gly): no change to this peak; 19F signal of reporter upon addition of protein (β-gly W33G [2]; covalent substrate analog attached): considerable peak broadening |
